This note sets out measurements from patent publication US12441726B2, “Compounds and uses thereof” (Foghorn Therapeutics Inc., priority 2020, dated 2025).

Each structure is given as a SMILES string. Some results are limits rather than exact numbers.

In one assay the target is BRM (Homo sapiens, UniProt P51531). The assay is described as follows: ATPase catalytic activity assay (ADP-Glo), BRM. Conditions: 30 nM BRM, 400 μM ATP. In general terms: ADP-Glo turns the ADP formed in a reaction into a luminescent signal.
BRM, sequence (P51531 whole entry): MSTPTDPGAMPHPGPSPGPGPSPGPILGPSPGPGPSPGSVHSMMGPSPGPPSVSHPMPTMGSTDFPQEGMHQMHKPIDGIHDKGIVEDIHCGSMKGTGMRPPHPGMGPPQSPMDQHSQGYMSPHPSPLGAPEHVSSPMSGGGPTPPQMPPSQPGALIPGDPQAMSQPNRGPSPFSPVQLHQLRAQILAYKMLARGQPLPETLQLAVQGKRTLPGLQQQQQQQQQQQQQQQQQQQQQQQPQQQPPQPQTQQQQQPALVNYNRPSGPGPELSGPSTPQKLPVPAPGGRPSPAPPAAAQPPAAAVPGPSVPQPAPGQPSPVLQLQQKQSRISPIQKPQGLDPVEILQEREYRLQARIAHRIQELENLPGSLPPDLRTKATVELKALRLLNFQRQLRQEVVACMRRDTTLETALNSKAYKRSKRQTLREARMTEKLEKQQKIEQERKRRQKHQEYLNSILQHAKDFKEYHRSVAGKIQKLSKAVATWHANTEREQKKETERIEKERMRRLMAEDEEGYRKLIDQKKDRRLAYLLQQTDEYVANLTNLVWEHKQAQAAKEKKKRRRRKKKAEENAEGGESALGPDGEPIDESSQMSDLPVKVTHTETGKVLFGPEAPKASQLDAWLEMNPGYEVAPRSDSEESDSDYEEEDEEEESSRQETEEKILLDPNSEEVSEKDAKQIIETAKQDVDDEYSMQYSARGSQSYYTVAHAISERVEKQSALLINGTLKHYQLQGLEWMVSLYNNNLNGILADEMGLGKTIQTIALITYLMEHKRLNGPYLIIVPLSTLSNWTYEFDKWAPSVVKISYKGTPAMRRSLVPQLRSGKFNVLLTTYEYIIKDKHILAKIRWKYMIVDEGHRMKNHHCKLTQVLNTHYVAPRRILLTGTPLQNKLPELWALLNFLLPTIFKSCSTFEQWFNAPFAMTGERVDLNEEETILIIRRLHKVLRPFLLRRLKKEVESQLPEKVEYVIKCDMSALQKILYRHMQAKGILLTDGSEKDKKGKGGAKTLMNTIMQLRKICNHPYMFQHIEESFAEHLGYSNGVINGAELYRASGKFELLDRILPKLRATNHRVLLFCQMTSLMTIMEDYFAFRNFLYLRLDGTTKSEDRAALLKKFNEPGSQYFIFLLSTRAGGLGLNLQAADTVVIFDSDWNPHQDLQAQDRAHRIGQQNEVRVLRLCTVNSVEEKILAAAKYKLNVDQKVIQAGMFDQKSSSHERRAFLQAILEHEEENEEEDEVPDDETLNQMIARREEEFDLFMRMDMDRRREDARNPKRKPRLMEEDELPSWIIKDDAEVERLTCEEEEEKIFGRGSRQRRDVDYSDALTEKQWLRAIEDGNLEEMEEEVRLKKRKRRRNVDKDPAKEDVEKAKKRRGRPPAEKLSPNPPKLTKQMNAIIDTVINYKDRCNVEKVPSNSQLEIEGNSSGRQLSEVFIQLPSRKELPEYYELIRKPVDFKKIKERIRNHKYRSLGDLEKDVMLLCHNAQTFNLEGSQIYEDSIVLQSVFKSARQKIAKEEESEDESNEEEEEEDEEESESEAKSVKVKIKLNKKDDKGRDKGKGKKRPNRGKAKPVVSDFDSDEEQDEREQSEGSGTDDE
For `C[C@@]1(C#N)COCc2ccc(C(=O)NCc3cc4nc(-c5ccnc(N6CCC6)c5F)ccc4cn3)cc21` [Compound 412], the “BRM Max % Inhibition” value worked out at 99%.
Same read-out and setting: the value for `C[C@@]1(C#N)COCc2ccc(C(=O)NCc3cc(N4Cc5ccccc5C4)ccn3)cc21` [Compound 31] was 96%.
The same measure, in the same setting: the value for `COC(=O)c1cccc(C#Cc2ccnc(CNC(=O)c3ccc4c(c3)[C@](C)(O)COC4)c2)c1` [Compound 23] was 85%.
Still for that read-out and setting: the figure for `C[C@@]1(F)COCc2ccc(C(=O)NCc3cc4nc(-c5ccnc(N6CCC6)c5F)cnc4cn3)cc21` [Compound 207] is 98%; for `CCOC(=O)C12CCC(CC1)N(c1ccc3cnc(CNC(=O)c4ccc5c(c4)[C@](C)(C#N)COC5)cc3n1)C2` [Compound 502] it is 89%; for `COc1ccccc1-c1ccc2cnc(CNC(=O)c3ccc4c(c3)[C@](C)(C#N)COC4)cc2n1` [Compound 111] it is 101%.
With `COCCn1c(C)cc2c(-c3ccc4cnc(CNC(=O)c5ccc6c(c5)[C@](C)(C#N)COC6)cc4n3)cccc21` [Compound 133], the “BRM Max % Inhibition” value came to 102%.
Same read-out and setting: the value for `COC(=O)N1CCCC(c2ccc3cnc(CNC(=O)c4ccc5c(c4)[C@](C)(C#N)COC5)cc3n2)C1` (stereo partly drawn) [Compound 121] was 81%; that for `C[C@@]1(F)COCc2ccc(C(=O)NCc3cc4nc(-c5cncc(N6CCC6)n5)ccc4cn3)cc21` [Compound 401] was 97%; that for `CO[C@H]1CCN(c2nccc(-c3ccc4cnc(CNC(=O)c5ccc6c(c5)[C@](C)(C#N)COC6)cc4n3)n2)C1` [Compound 339] was 100%.
Still for that read-out and setting: the figure for `C[C@@]1(F)COCc2ncc(C(=O)NCc3cc4nc(-c5ccnc(N6CCC6)c5F)ccc4cn3)cc21` [Compound 296] is 100%; for `C[C@@]1(C#N)COCc2ccc(C(=O)NCc3cc(N4CC(c5ccccc5)C4)ccn3)cc21` [Compound 32] it is 89%; for `CN(C)c1cccc(-c2ccc3cnc(CNC(=O)c4ccc5c(c4)[C@](C)(F)COC5)cc3n2)n1` [Compound 248] it is 98%.
On the same count and under the same terms, the value for `CNC(=O)c1ccc(-c2ccc3cnc(CNC(=O)c4ccc5c(c4)[C@](C)(C#N)COC5)cc3n2)cc1` [Compound 324] was 105%; that for `Cn1ccc2ncc(-c3ccc4cnc(CNC(=O)c5ccc6c(c5)[C@](C)(C#N)COC6)cc4n3)nc21` [Compound 346] was 102%; that for `C[C@@]1(C#N)COc2ccc(C(=O)NCc3cc4nc(-c5ccccc5)ccc4cn3)cc21` [Compound 99] was 63%.
In the case of `CN1C(=O)Cc2cc(-c3ccc4cnc(CNC(=O)c5ccc6c(c5)[C@](C)(C#N)COC6)cc4n3)ccc21` [Compound 498], the “BRM Max % Inhibition” value was 98%.
Same read-out and setting: the figure for `C[C@@]1(C#N)COCc2ccc(C(=O)NCc3ncc4ccc(-c5cncc(C6CC6)n5)cc4n3)cc21` [Compound 206] is 99%.

The same assay, now with this note: BRM ATPase: IC50 (uM), 30 nM BRM, 400 μM ATP.
In the case of `C[C@@]1(C#N)COCc2ccc(C(=O)NCc3cc4nc(-c5ccnc(N6CCC6)c5F)ccc4cn3)cc21` [Compound 412], the half-maximal inhibitory concentration (IC50) (usually the midpoint of a concentration-inhibition curve) is less than 0.1 µM.
Still for that read-out and setting: the value for `C[C@@]1(C#N)COCc2ccc(C(=O)NCc3cc(N4Cc5ccccc5C4)ccn3)cc21` [Compound 31] was 0.1 to 0.5 µM; that for `COC(=O)c1cccc(C#Cc2ccnc(CNC(=O)c3ccc4c(c3)[C@](C)(O)COC4)c2)c1` [Compound 23] was 0.5 to 1 µM.
On the same count and under the same terms, the value for `C[C@@]1(F)COCc2ccc(C(=O)NCc3cc4nc(-c5ccnc(N6CCC6)c5F)cnc4cn3)cc21` [Compound 207] was less than 0.1 µM.
The same measure, in the same setting: the value for `CCOC(=O)C12CCC(CC1)N(c1ccc3cnc(CNC(=O)c4ccc5c(c4)[C@](C)(C#N)COC5)cc3n1)C2` [Compound 502] was 0.1 to 0.5 µM.
In the case of `COc1ccccc1-c1ccc2cnc(CNC(=O)c3ccc4c(c3)[C@](C)(C#N)COC4)cc2n1` [Compound 111], the IC50 is less than 0.1 µM.
Same read-out and setting: the value for `COCCn1c(C)cc2c(-c3ccc4cnc(CNC(=O)c5ccc6c(c5)[C@](C)(C#N)COC6)cc4n3)cccc21` [Compound 133] was less than 0.1 µM.
Consider `COC(=O)N1CCCC(c2ccc3cnc(CNC(=O)c4ccc5c(c4)[C@](C)(C#N)COC5)cc3n2)C1` (stereo partly drawn) [Compound 121], for which the IC50 is greater than 1 µM.
The same measure, in the same setting: the figure for `C[C@@]1(F)COCc2ccc(C(=O)NCc3cc4nc(-c5cncc(N6CCC6)n5)ccc4cn3)cc21` [Compound 401] is less than 0.1 µM; for `CO[C@H]1CCN(c2nccc(-c3ccc4cnc(CNC(=O)c5ccc6c(c5)[C@](C)(C#N)COC6)cc4n3)n2)C1` [Compound 339] it is less than 0.1 µM.
On the same count and under the same terms, the value for `C[C@@]1(F)COCc2ncc(C(=O)NCc3cc4nc(-c5ccnc(N6CCC6)c5F)ccc4cn3)cc21` [Compound 296] was less than 0.1 µM.
The same measure, in the same setting: the value for `C[C@@]1(C#N)COCc2ccc(C(=O)NCc3cc(N4CC(c5ccccc5)C4)ccn3)cc21` [Compound 32] was greater than 1 µM; that for `CN(C)c1cccc(-c2ccc3cnc(CNC(=O)c4ccc5c(c4)[C@](C)(F)COC5)cc3n2)n1` [Compound 248] was less than 0.1 µM.
On to `CNC(=O)c1ccc(-c2ccc3cnc(CNC(=O)c4ccc5c(c4)[C@](C)(C#N)COC5)cc3n2)cc1` [Compound 324], for which the IC50 was 0.1 to 0.5 µM.
Still for that read-out and setting: the value for `Cn1ccc2ncc(-c3ccc4cnc(CNC(=O)c5ccc6c(c5)[C@](C)(C#N)COC6)cc4n3)nc21` [Compound 346] was less than 0.1 µM.
Still for that read-out and setting: the figure for `C[C@@]1(C#N)COc2ccc(C(=O)NCc3cc4nc(-c5ccccc5)ccc4cn3)cc21` [Compound 99] is greater than 1 µM.
As to `CN1C(=O)Cc2cc(-c3ccc4cnc(CNC(=O)c5ccc6c(c5)[C@](C)(C#N)COC6)cc4n3)ccc21` [Compound 498], the IC50 was in the range of 0.1 to 0.5 µM.
The compound `C[C@@]1(C#N)COCc2ccc(C(=O)NCc3ncc4ccc(-c5cncc(C6CC6)n5)cc4n3)cc21` [Compound 206] showed an IC50 of less than 0.1 µM.

For the next assay, the target named is BRG-1 (Homo sapiens, UniProt P51532). The assay is described as follows: ATPase catalytic activity assay (ADP-Glo), BRG-1.
BRG-1, sequence (P51532 whole entry): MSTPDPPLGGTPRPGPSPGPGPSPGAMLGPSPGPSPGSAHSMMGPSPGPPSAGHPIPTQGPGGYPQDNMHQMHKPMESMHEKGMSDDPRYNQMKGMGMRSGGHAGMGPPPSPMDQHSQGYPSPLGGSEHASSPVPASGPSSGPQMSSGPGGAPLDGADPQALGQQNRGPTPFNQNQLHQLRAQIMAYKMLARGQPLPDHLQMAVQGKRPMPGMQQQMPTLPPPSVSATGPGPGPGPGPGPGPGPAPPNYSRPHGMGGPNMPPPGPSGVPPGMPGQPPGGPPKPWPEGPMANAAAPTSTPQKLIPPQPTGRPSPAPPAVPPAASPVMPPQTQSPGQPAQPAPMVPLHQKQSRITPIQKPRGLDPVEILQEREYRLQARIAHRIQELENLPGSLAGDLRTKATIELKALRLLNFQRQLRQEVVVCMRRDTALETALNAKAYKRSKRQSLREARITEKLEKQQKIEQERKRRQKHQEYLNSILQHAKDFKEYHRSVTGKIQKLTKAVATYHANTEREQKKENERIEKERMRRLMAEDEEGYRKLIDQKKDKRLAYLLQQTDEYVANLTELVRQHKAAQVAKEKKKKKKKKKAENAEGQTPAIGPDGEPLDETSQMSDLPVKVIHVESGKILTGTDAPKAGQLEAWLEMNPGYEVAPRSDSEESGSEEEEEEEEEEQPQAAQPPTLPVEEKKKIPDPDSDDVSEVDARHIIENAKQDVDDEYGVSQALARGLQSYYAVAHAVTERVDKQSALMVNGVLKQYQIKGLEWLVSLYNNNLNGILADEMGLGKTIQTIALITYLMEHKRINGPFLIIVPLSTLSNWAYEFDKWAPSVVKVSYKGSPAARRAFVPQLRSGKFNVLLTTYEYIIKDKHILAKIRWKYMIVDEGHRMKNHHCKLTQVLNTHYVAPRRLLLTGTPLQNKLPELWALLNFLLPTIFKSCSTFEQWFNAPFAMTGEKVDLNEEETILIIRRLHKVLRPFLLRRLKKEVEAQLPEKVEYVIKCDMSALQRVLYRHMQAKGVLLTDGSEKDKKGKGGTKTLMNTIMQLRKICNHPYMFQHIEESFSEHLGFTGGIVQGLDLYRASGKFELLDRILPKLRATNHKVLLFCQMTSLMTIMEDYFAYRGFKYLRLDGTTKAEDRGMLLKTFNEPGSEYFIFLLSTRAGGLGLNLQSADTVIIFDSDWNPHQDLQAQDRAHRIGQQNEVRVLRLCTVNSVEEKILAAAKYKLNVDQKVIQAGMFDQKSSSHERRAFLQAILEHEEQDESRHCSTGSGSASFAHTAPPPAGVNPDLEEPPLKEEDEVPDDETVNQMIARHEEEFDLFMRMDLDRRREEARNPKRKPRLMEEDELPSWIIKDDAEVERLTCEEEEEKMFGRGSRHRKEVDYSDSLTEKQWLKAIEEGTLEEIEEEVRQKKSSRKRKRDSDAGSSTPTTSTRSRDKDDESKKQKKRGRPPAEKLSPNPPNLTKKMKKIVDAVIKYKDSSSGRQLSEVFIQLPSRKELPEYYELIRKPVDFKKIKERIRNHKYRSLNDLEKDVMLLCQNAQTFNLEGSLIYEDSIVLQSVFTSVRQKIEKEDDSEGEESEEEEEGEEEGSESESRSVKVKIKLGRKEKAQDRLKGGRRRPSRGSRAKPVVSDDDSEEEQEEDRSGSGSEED
Settings: not given
For `C[C@@]1(C#N)COCc2ccc(C(=O)NCc3cc4nc(-c5ccnc(N6CCC6)c5F)ccc4cn3)cc21` [Compound 412], the IC50 fell in the range of 100 to 500 nM.
The compound `C[C@@]1(C#N)COCc2ccc(C(=O)NCc3cc(N4Cc5ccccc5C4)ccn3)cc21` [Compound 31] gave an IC50 greater than 1000 nM.
The same measure, in the same setting: the value for `COC(=O)c1cccc(C#Cc2ccnc(CNC(=O)c3ccc4c(c3)[C@](C)(O)COC4)c2)c1` [Compound 23] was greater than 1000 nM.
Same read-out and setting: the value for `C[C@@]1(F)COCc2ccc(C(=O)NCc3cc4nc(-c5ccnc(N6CCC6)c5F)cnc4cn3)cc21` [Compound 207] was 100 to 500 nM; that for `CCOC(=O)C12CCC(CC1)N(c1ccc3cnc(CNC(=O)c4ccc5c(c4)[C@](C)(C#N)COC5)cc3n1)C2` [Compound 502] was 500 to 1000 nM.
As to `COc1ccccc1-c1ccc2cnc(CNC(=O)c3ccc4c(c3)[C@](C)(C#N)COC4)cc2n1` [Compound 111], the IC50 is 100 to 500 nM.
Still for that read-out and setting: the figure for `COCCn1c(C)cc2c(-c3ccc4cnc(CNC(=O)c5ccc6c(c5)[C@](C)(C#N)COC6)cc4n3)cccc21` [Compound 133] is less than 100 nM; for `COC(=O)N1CCCC(c2ccc3cnc(CNC(=O)c4ccc5c(c4)[C@](C)(C#N)COC5)cc3n2)C1` (stereo partly drawn) [Compound 121] it is greater than 1000 nM.
Still for that read-out and setting: the value for `C[C@@]1(F)COCc2ccc(C(=O)NCc3cc4nc(-c5cncc(N6CCC6)n5)ccc4cn3)cc21` [Compound 401] was 100 to 500 nM; that for `CO[C@H]1CCN(c2nccc(-c3ccc4cnc(CNC(=O)c5ccc6c(c5)[C@](C)(C#N)COC6)cc4n3)n2)C1` [Compound 339] was 100 to 500 nM; that for `C[C@@]1(F)COCc2ncc(C(=O)NCc3cc4nc(-c5ccnc(N6CCC6)c5F)ccc4cn3)cc21` [Compound 296] was 100 to 500 nM.
Still for that read-out and setting: the value for `C[C@@]1(C#N)COCc2ccc(C(=O)NCc3cc(N4CC(c5ccccc5)C4)ccn3)cc21` [Compound 32] was greater than 1000 nM.
Regarding `CN(C)c1cccc(-c2ccc3cnc(CNC(=O)c4ccc5c(c4)[C@](C)(F)COC5)cc3n2)n1` [Compound 248], the IC50 fell in the range of 100 to 500 nM.
The same measure, in the same setting: the value for `CNC(=O)c1ccc(-c2ccc3cnc(CNC(=O)c4ccc5c(c4)[C@](C)(C#N)COC5)cc3n2)cc1` [Compound 324] was 500 to 1000 nM.
Still for that read-out and setting: the figure for `Cn1ccc2ncc(-c3ccc4cnc(CNC(=O)c5ccc6c(c5)[C@](C)(C#N)COC6)cc4n3)nc21` [Compound 346] is less than 100 nM; for `C[C@@]1(C#N)COc2ccc(C(=O)NCc3cc4nc(-c5ccccc5)ccc4cn3)cc21` [Compound 99] it is greater than 1000 nM.
Same read-out and setting: the value for `CN1C(=O)Cc2cc(-c3ccc4cnc(CNC(=O)c5ccc6c(c5)[C@](C)(C#N)COC6)cc4n3)ccc21` [Compound 498] was 100 to 500 nM; that for `C[C@@]1(C#N)COCc2ccc(C(=O)NCc3ncc4ccc(-c5cncc(C6CC6)n5)cc4n3)cc21` [Compound 206] was 100 to 500 nM.

The same assay, now with this note: 1 h, read-out: BRG1 Max % Inhibition, ADP-Glo, 30 nM BRG-1, 400 μM ATP.
Regarding `C[C@@]1(C#N)COCc2ccc(C(=O)NCc3cc4nc(-c5ccnc(N6CCC6)c5F)ccc4cn3)cc21` [Compound 412], the Emax was 98%.
In the case of `C[C@@]1(C#N)COCc2ccc(C(=O)NCc3cc(N4Cc5ccccc5C4)ccn3)cc21` [Compound 31], the Emax is 73%.
As for `COC(=O)c1cccc(C#Cc2ccnc(CNC(=O)c3ccc4c(c3)[C@](C)(O)COC4)c2)c1` [Compound 23], the Emax was found to be 35%.
On the same count and under the same terms, the figure for `C[C@@]1(F)COCc2ccc(C(=O)NCc3cc4nc(-c5ccnc(N6CCC6)c5F)cnc4cn3)cc21` [Compound 207] is 89%; for `CCOC(=O)C12CCC(CC1)N(c1ccc3cnc(CNC(=O)c4ccc5c(c4)[C@](C)(C#N)COC5)cc3n1)C2` [Compound 502] it is 70%; for `COc1ccccc1-c1ccc2cnc(CNC(=O)c3ccc4c(c3)[C@](C)(C#N)COC4)cc2n1` [Compound 111] it is 93%.
Same read-out and setting: the value for `COCCn1c(C)cc2c(-c3ccc4cnc(CNC(=O)c5ccc6c(c5)[C@](C)(C#N)COC6)cc4n3)cccc21` [Compound 133] was 98%; that for `COC(=O)N1CCCC(c2ccc3cnc(CNC(=O)c4ccc5c(c4)[C@](C)(C#N)COC5)cc3n2)C1` (stereo partly drawn) [Compound 121] was 44%.
`C[C@@]1(F)COCc2ccc(C(=O)NCc3cc4nc(-c5cncc(N6CCC6)n5)ccc4cn3)cc21` [Compound 401]: the Emax came out at 91%.
The same measure, in the same setting: the figure for `CO[C@H]1CCN(c2nccc(-c3ccc4cnc(CNC(=O)c5ccc6c(c5)[C@](C)(C#N)COC6)cc4n3)n2)C1` [Compound 339] is 95%; for `C[C@@]1(F)COCc2ncc(C(=O)NCc3cc4nc(-c5ccnc(N6CCC6)c5F)ccc4cn3)cc21` [Compound 296] it is 88%; for `C[C@@]1(C#N)COCc2ccc(C(=O)NCc3cc(N4CC(c5ccccc5)C4)ccn3)cc21` [Compound 32] it is 55%.
The same measure, in the same setting: the value for `CN(C)c1cccc(-c2ccc3cnc(CNC(=O)c4ccc5c(c4)[C@](C)(F)COC5)cc3n2)n1` [Compound 248] was 100%; that for `CNC(=O)c1ccc(-c2ccc3cnc(CNC(=O)c4ccc5c(c4)[C@](C)(C#N)COC5)cc3n2)cc1` [Compound 324] was 81%; that for `Cn1ccc2ncc(-c3ccc4cnc(CNC(=O)c5ccc6c(c5)[C@](C)(C#N)COC6)cc4n3)nc21` [Compound 346] was 94%.
The same measure, in the same setting: the figure for `C[C@@]1(C#N)COc2ccc(C(=O)NCc3cc4nc(-c5ccccc5)ccc4cn3)cc21` [Compound 99] is 22%; for `CN1C(=O)Cc2cc(-c3ccc4cnc(CNC(=O)c5ccc6c(c5)[C@](C)(C#N)COC6)cc4n3)ccc21` [Compound 498] it is 83%; for `C[C@@]1(C#N)COCc2ccc(C(=O)NCc3ncc4ccc(-c5cncc(C6CC6)n5)cc4n3)cc21` [Compound 206] it is 85%.
